Data on 15 molecules can be found in patent US10428080B2, “TBK/IKK inhibitor compounds and uses thereof” (Merck Patent GmbH, priority 2015, dated 2019).

Structures can show the parent of a compound that is named as a salt. Where two headings read alike, the source gives them in different places. A value given as a limit tells only on which side of the number the result lay.

Experiment [1] addresses T1, IKKε (Homo sapiens, UniProt Q14164).
T1 sequence (Q14164 1-716): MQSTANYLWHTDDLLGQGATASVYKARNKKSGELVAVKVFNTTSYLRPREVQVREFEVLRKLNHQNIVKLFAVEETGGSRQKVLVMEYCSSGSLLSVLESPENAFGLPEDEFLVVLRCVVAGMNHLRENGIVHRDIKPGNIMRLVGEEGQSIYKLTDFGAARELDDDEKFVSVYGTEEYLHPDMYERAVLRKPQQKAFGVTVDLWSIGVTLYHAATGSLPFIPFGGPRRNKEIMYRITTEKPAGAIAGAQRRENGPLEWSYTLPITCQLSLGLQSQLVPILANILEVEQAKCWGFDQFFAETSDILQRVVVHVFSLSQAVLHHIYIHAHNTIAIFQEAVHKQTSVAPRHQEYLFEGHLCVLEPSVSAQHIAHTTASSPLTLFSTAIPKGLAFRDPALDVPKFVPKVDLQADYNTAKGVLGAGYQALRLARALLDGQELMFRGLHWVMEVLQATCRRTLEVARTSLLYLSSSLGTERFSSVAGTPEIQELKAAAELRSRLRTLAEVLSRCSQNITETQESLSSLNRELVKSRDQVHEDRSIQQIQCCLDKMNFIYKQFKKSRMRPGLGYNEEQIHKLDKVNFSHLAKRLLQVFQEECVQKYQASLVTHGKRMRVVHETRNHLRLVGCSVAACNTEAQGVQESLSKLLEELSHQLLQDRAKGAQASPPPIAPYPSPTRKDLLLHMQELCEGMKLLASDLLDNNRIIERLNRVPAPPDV
Description: IKKe Biochemical Assay. The following applies: read-out: IKKε IC50. The method in brief:
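Recombinant IKKε and substrate were incubated with compound (10-point 1:4 series, top 30 uM final, 1% DMSO) for 90 min at 25° C, then stopped. Substrate-to-product conversion was read by LabChip microfluidic mobility shift; 10 uM staurosporine served as full-inhibition wells.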

The test system of experiment [2] is phosphorylation of the IRF-3 protein in MDA-MB-468 cells. Description: pIRF3 immunocytochemistry cell based assay. The following applies: MDA-MB-468 cells, Poly(I:C) stimulation, read-out: pIRF3 IC50. As to the method: The purpose of the pIRF3 immunocytochemistry cell based assay was to identify small molecules which modulates TBK/IKKe kinase activity through on target substrate phosphorylation of the IRF-3 protein. On the first day of the experiment, MDA-MB-468 cells were plated in 384 well, black, clear-bottom, Poly D lysine coated plates at a density of 5000 cells/well in 45 ul of complete DMEM and allowed to adhere overnight. On the second day compounds were added to cells at a starting concentration of 10 uM with a serial dilution of 3-fold for a total of 10 points. The cells were incubated for 1 hr at 37° C. Cells were then stimulated with Poly(I:C) at a final concentration of 10 ug/ml, and were incubated for 2 hr at 37° C. Following the incubation, media was removed from the wells and the cells were fixed with 4% PFA for 15 min at RT. Cells were washed at least 3 times with PBS, and then permeabilized with ice-cold methanol for 10 min at RT. The washing step was repeated and the cells were then blocked using 10% goat serum/1% BSA, made up in PBS and allowed to incubate at RT for 1 hr. The cells were washed again and then treated with an anti-pIRF3 antibody at 4° C. overnight (1:250 dilution of Abcam ab76493 in PBS containing 1% BSA). On the third day the primary antibody was washed off and pIRF3 was detected by adding the secondary antibody conjugated to AlexaFluor488 (1:200 dilution of secondary antibody in PBS containing 1% BSA) for 1 hr at RT. Cells were washed and then counterstained with PI/RNase staining buffer for 15 min at RT and read on the Acumen Explorer laser scanning cytometer. The percentage of phosphorylation of the IRF-3 protein was calculated using the following algorithm, a modified version of the mean half width intensity (pIRF3 staining)/(PI staining or # of cells)×100%). IC50 curves were generated using the Genedata software.

Experiment [3] concerns the target T2, TBK1 (Homo sapiens, UniProt Q9UHD2).
T2 sequence (Q9UHD2 1-729): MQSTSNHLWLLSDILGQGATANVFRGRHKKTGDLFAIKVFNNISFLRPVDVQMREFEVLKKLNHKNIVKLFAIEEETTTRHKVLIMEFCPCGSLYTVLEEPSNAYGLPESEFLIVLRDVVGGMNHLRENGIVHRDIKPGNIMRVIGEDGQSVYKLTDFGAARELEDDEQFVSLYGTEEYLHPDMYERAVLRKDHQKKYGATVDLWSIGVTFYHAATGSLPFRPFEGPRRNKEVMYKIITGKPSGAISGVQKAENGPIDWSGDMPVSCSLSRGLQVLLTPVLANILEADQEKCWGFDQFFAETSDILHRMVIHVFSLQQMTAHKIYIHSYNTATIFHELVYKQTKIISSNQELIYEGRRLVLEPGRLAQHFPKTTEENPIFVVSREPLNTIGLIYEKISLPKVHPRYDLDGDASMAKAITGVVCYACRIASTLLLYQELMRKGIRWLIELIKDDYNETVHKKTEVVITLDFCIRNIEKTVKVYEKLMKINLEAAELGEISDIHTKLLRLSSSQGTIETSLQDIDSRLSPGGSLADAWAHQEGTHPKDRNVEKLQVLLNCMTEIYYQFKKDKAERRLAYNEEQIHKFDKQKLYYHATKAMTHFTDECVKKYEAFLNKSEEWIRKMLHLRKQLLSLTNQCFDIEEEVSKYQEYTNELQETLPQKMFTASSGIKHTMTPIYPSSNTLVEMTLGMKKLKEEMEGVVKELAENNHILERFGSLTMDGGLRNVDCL
Put plainly: TBK Biochemical Assay. As to conditions: read-out: TBK1 IC50. The method in brief: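 TBK1 enzyme and substrate incubated with compounds (10-point 1:4 dilution, top 30 uM final, 1% DMSO) for 90 min at 25° C, then stopped. Substrate/product peaks read by microfluidic mobility-shift (Caliper LabChip); 10 uM staurosporine as full-inhibition control.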

For `COc1cc(C(=O)N(C)C)ccc1-c1cc2nccc(-c3ccc(OC4CCOC[C@@H]4F)c(C#N)c3)c2o1` (mixture of isomers) [Compound 42, 4-{7-[3-Cyano-4-((S)-3-fluoro-tetrahydro-pyran-4-yloxy)-phenyl]-furo[3,2-b]pyridin-2-yl}-3-methoxy-N,N-dimethyl-benzamide], the IC50 in experiment [1], in experiment [2] (Homo sapiens) and in experiment [3] was < 100 nM throughout.
`N#Cc1cc(-c2ccnc3cc(-c4ccc(C(=O)NC5CNCCC5F)cc4)oc23)ccc1OC1CCOCC1` (racemic) [Compound 131, 4-{7-[3-Cyano-4-(tetrahydro-pyran-4-yloxy)-phenyl]-furo[3,2-b]pyridin-2-yl}-N-(4-fluoro-piperidin-3-yl)-benzamide]: the IC50 in experiment [1] was < 100 nM; in experiment [2] (Homo sapiens), 100 to 1000 nM; in experiment [3] it was < 100 nM.
For the molecule `COc1cc(C(=O)N[C@H]2[C@@H]3C[C@H]2CN(C)C3)ccc1-c1cc2nccc(-c3ccc(OC4CCOCC4)c(C#N)c3)c2o1` (single isomer, unassigned) [Compound 365], the IC50 in experiment [1] is < 100 nM; in experiment [2] (Homo sapiens), 100 to 1000 nM; in experiment [3], < 100 nM.
As for `COc1cc(C(=O)N[C@H]2[C@@H]3C[C@H]2CN(C)C3)ccc1-c1cc2nccc(-c3ccc(OC4CCOCC4)c(C#N)c3)c2o1` (single isomer, unassigned) [Compound 366], the figures for the IC50 in experiment [1], in experiment [2] and in experiment [3] were < 100 nM, 100 to 1000 nM and < 100 nM, respectively.
Take `COc1cc(C(=O)N[C@H]2C[C@H](CO)N(C)C2)ccc1-c1cc2nccc(-c3ccc(OC4CCOCC4)c(C#N)c3)c2o1` (stereo in doubt) [Compound 350, 4-[7-[3-cyano-4-(oxan-4-yloxy)phenyl]furo[3,2-b]pyridin-2-yl]-N-[(3S,5R)-5-(hydroxymethyl)-1-methylpyrrolidin-3-yl]-3-methoxybenzamide]: the IC50 is < 100 nM in experiment [1], 100 to 1000 nM in experiment [2] (Homo sapiens) and < 100 nM in experiment [3].
As to `COc1cc(C(=O)N2CCCCC2)ncc1-c1cc2nccc(-c3ccc(N4CCC(F)C4)c(C#N)c3)c2o1` (stereo in doubt) [Compound 384, 2-((S)-3-Fluoro-pyrrolidin-1-yl)-5-{2-[4-methoxy-6-(piperidine-1-carbonyl)-pyridin-3-yl]-furo[3,2-b]pyridin-7-yl}-benzonitrile], the IC50 in experiment [1], in experiment [2] (Homo sapiens) and in experiment [3] was < 100 nM each time.
`COc1cc(C(=O)N2CCCCC2)ncc1-c1cc2nccc(-c3ccc(N4CC[C@@H](F)C4)c(C#N)c3)c2o1` (stereo in doubt) [Compound 385]: the IC50 in experiment [1], in experiment [2] and in experiment [3] was < 100 nM in each case.
Regarding `COc1cc(C(=O)N(C)C)ncc1-c1cc2nccc(-c3ccc(N4CCC(F)C4)c(C#N)c3)c2o1` (stereo in doubt) [Compound 389, 5-{7-[3-Cyano-4-((S)-3-fluoro-pyrrolidin-1-yl)-phenyl]-furo[3,2-b]pyridin-2-yl}-4-methoxy-pyridine-2-carboxylic acid dimethylamide], the IC50 in experiment [1] is < 100 nM; in experiment [2] (Homo sapiens), 100 to 1000 nM; in experiment [3], < 100 nM.
As for `COc1cc(C(=O)N(C)C)ncc1-c1cc2nccc(-c3ccc(N4CCC(F)C4)c(C#N)c3)c2o1` (stereo in doubt) [Compound 390, 5-{7-[3-Cyano-4-((R)-3-fluoro-pyrrolidin-1-yl)-phenyl]-fluro[3,2-b]pyridin-2-yl}-4-methoxy-pyridine-2-carboxylic acid dimethylamide], the IC50 in experiment [1] was < 100 nM; in experiment [2] (Homo sapiens), 100 to 1000 nM; in experiment [3] it was < 100 nM.
Regarding `COc1cc(C(=O)NC2C3COCC32)cnc1-c1cc2nccc(-c3ccc(N4CC[C@H](F)C4)c(C#N)c3)c2o1` (stereo in doubt) [Compound 465, 6-[7-[3-cyano-4-(3-fluoropyrrolidin-1-yl)phenyl]furo[3,2-b]pyridin-2-yl]-5-methoxy-N-[3-oxabicyclo[3.1.0]hexan-6-yl]pyridine-3-carboxamide], the IC50 was < 100 nM in experiment [1], 100 to 1000 nM in experiment [2] (Homo sapiens) and < 100 nM in experiment [3].
As for `COc1cc(C(=O)N2C[C@H]3C[C@@H]2CN3C)ccc1-c1cc2nccc(-c3ccc(OC4CCOCC4)c(C#N)c3)c2o1` (stereo in doubt) [Compound 507], the IC50 in experiment [1], in experiment [2] (Homo sapiens) and in experiment [3] was < 100 nM each time.
As for `COc1cc(C(=O)N2CC3CC2CO3)ccc1-c1cc2nccc(-c3ccc(OC4CCOCC4)c(C#N)c3)c2o1` (stereo not drawn) [Compound 1, 5-{2-[2-Methoxy-4-(2-oxa-5-aza-bicyclo[2.2.1]heptane-5-carbonyl)-phenyl]-furo[3,2-b]pyridin-7-yl}-2-(tetrahydro-pyran-4-yloxy)-benzonitrile], the IC50 in experiment [1], in experiment [2] (Homo sapiens) and in experiment [3] was < 100 nM throughout.
As for `COc1cc(C(=O)N2CCC3(CCO3)CC2)ccc1-c1cc2nccc(-c3ccc(OC4CCOCC4)c(C#N)c3)c2o1` [Compound 3, 5-{2-[2-Methoxy-4-(1-oxa-7-aza-spiro[3.5]nonane-7-carbonyl)-phenyl]-furo[3,2-b]pyridin-7-yl}-2-(tetrahydro-pyran-4-yloxy)-benzonitrile], the IC50 in experiment [1] is < 100 nM; in experiment [2] (Homo sapiens), 100 to 1000 nM; in experiment [3], < 100 nM.
With `COc1cc(C(=O)N(C)C)ccc1-c1cc2nccc(-c3ccc(C(C)(C)N4CCOCC4)c(C#N)c3)c2o1` [Compound 291, 4-(7-[3-cyano-4-[2-(morpholin-4-yl)propan-2-yl]phenyl]furo[3,2-b]pyridin-2-yl)-3-methoxy-N,N-dimethylbenzamide hydrochloride], in experiment [2] (Homo sapiens), the IC50 is > 5000 nM.
`COc1cc(C(=O)N(C)C)cnc1-c1cc2ncc(OC)c(-c3ccc(OC4CCOCC4)c(C#N)c3)c2o1` [Compound 339, 6-[7-[3-cyano-4-(oxan-4-yloxy)phenyl]-6-methoxyfuro[3,2-b]pyridin-2-yl]-5-methoxy-N,N-dimethylpyridine-3-carboxamide]: the figures for the IC50 in experiment [2] (Homo sapiens) and in experiment [3] were < 100 nM and 100 to 1000 nM, respectively.

What is called IC50 is the concentration needed to halve the response being measured.
